Experimental data published in PubChem BioAssay (NCI).
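Here, GI50 denotes the concentration required for 50% inhibition of growth. The concentration for full growth arrest is given as TGI.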

How the values were obtained:
Assay in all cases: growth of human tumour cells (NCI), 384-well format
[1] = tested on: OVCAR-4 ovarian
[2] = tested on: NCI/ADR-RES ovarian
[3] = tested on: COLO 205 colon
[4] = tested on: UACC-257 melanoma
[5] = tested on: HCC-2998 colon
[6] = tested on: IGROV1 ovarian
[7] = tested on: SK-OV-3 ovarian
[8] = tested on: 786-0 renal
[9] = tested on: RPMI-8226 leukemia
[10] = tested on: SR leukemia
[11] = tested on: OVCAR-3 ovarian
[12] = tested on: SN12C renal
[13] = tested on: SF-539 CNS
[14] = tested on: A498 renal
[15] = tested on: MDA-MB-435 melanoma
[16] = tested on: MALME-3M melanoma
[17] = tested on: MDA-MB-468 breast
[18] = tested on: CAKI-1 renal
[19] = tested on: MDA-MB-231 breast
[20] = tested on: T-47D breast
[21] = tested on: OVCAR-8 ovarian
[22] = tested on: NCI-H322M lung
[23] = tested on: OVCAR-5 ovarian
[24] = tested on: KM12 colon
[25] = tested on: NCI-H23 lung
[26] = tested on: TK-10 renal
[27] = tested on: SNB-19 CNS
[28] = tested on: PC-3 prostate
[29] = tested on: LOX IMVI melanoma
[30] = tested on: SF-268 CNS
[31] = tested on: HT29 colon
[32] = tested on: EKVX NSCLC
[33] = tested on: HOP-92 NSCLC
[34] = tested on: MCF7 breast
[35] = tested on: SF-295 CNS
[36] = tested on: CCRF-CEM leukemia
[37] = tested on: SW-620 colon
[38] = tested on: DU-145 prostate
[39] = tested on: NCI-H460 NSCLC
[40] = tested on: SK-MEL-28 melanoma
[41] = tested on: HS 578T breast
[42] = tested on: HOP-62 NSCLC
[43] = tested on: NCI-H522 lung
[44] = tested on: HL-60(TB) leukemia
[45] = tested on: BT-549 breast
[46] = tested on: A549 NSCLC
[47] = tested on: UACC-62 melanoma
[48] = tested on: MOLT-4 leukemia
[49] = tested on: K-562 leukemia
[50] = tested on: SNB-75 CNS
[51] = tested on: SK-MEL-5 melanoma
[52] = tested on: UO-31 renal
[53] = tested on: M14 melanoma
[54] = tested on: ACHN renal
[55] = tested on: RXF 393 renal
[56] = tested on: NCI-H226 lung
[57] = tested on: HCT-15 colon

SMILES: Cc1c(C#N)cccc1[C@@H](C)Nc1nnc(C)c2cnc(N3CCOCC3)cc12
- GI50 [1]: 8.18 µM
- TGI [1]: 22 µM
- GI50 [2]: 16.6 µM
- TGI [2]: 32.1 µM
- GI50 [3]: 16.5 µM
- TGI [3]: 30.5 µM
- GI50 [4]: 19.5 µM
- TGI [4]: 33.9 µM
- GI50 [5]: 18.3 µM
- TGI [5]: 33.3 µM
- GI50 [6]: 15.5 µM
- TGI [6]: 31.4 µM
- GI50 [7]: 16.7 µM
- TGI [7]: 30.7 µM
- GI50 [8]: 13.1 µM
- TGI [8]: 26.5 µM
- GI50 [9]: 11.2 µM
- TGI [9]: 23.3 µM
- GI50 [10]: 0.749 µM
- TGI [10]: 18.1 µM
- GI50 [11]: 13.4 µM
- TGI [11]: 26.4 µM
- GI50 [12]: 1.65 µM
- TGI [12]: 19.9 µM
- GI50 [13]: 15.9 µM
- TGI [13]: 29.3 µM
- GI50 [14]: 12.1 µM
- TGI [14]: 24.6 µM
- GI50 [15]: 18.2 µM
- TGI [15]: 32.4 µM
- GI50 [16]: 16.6 µM
- TGI [16]: 30.6 µM
- GI50 [17]: 0.39 µM
- TGI [17]: 6.37 µM
- GI50 [18]: 10.5 µM
- TGI [18]: 23 µM
- GI50 [19]: 14.3 µM
- TGI [19]: 29.3 µM
- GI50 [20]: 11.3 µM
- TGI [20]: 24.6 µM
- GI50 [21]: 15 µM
- TGI [21]: 29 µM
- GI50 [22]: 11.8 µM
- TGI [22]: 26.6 µM
- GI50 [23]: 19.1 µM
- TGI [23]: 38.9 µM
- GI50 [24]: 4.85 µM
- TGI [24]: 22.2 µM
- GI50 [25]: 10.6 µM
- TGI [25]: 23.2 µM
- GI50 [26]: 15.2 µM
- TGI [26]: 38.9 µM
- GI50 [27]: 14.3 µM
- TGI [27]: 37.5 µM
- GI50 [28]: 17 µM
- TGI [28]: 32.3 µM
- GI50 [29]: 14 µM
- TGI [29]: 27.1 µM
- GI50 [30]: 16 µM
- TGI [30]: 30.8 µM
- GI50 [31]: 15.7 µM
- TGI [31]: 30 µM
- GI50 [32]: 11.7 µM
- TGI [32]: 26.8 µM
- GI50 [33]: 0.0569 µM
- TGI [33]: 14.3 µM
- GI50 [34]: 15.8 µM
- TGI [34]: 35.5 µM
- GI50 [35]: 14.7 µM
- TGI [35]: 28 µM
- GI50 [36]: 19.5 µM
- TGI [36]: 33.7 µM
- GI50 [37]: 12.6 µM
- TGI [37]: 25.4 µM
- GI50 [38]: 18.5 µM
- TGI [38]: 37.6 µM
- GI50 [39]: 17.5 µM
- TGI [39]: 32.2 µM
- GI50 [40]: 15.4 µM
- TGI [40]: 29.7 µM
- GI50 [41]: 13.8 µM
- TGI [41]: 26.9 µM
- GI50 [42]: 14.2 µM
- TGI [42]: 27.9 µM
- GI50 [43]: 11.5 µM
- TGI [43]: 24 µM
- GI50 [44]: 21.8 µM
- TGI [44]: 36.2 µM
- GI50 [45]: 14.1 µM
- TGI [45]: 27.4 µM
- GI50 [46]: 16.7 µM
- TGI [46]: 36.3 µM
- GI50 [47]: 16.6 µM
- TGI [47]: 30.3 µM
- GI50 [48]: 12.8 µM
- TGI [48]: 25.5 µM
- GI50 [49]: 0.163 µM
- TGI [49]: 15 µM
- GI50 [50]: 16.3 µM
- TGI [50]: 33.3 µM
- GI50 [51]: 11 µM
- TGI [51]: 23 µM
- GI50 [52]: 13.3 µM
- TGI [52]: 26.8 µM
- GI50 [53]: 17.2 µM
- TGI [53]: 31.1 µM
- GI50 [54]: 14.5 µM
- TGI [54]: 31.6 µM
- GI50 [55]: 12 µM
- TGI [55]: 24.6 µM
- GI50 [56]: 12.7 µM
- TGI [56]: 26.5 µM
- GI50 [57]: 16.1 µM
- TGI [57]: 29.9 µM
